Experimental data as given in patent US8241607B2, “Use of fructose-based compounds for the diagnosis of cancer” (priority 2005, dated 2012).

Key:
[1] = system: PANC-1 cells; test: PANC-1 proliferation in fructose versus glucose (MTS assay); type: cell-based
Description: FIG. 13 depicts higher proliferation rates in pancreatic cancer cells in fructose (5.5 mM) than glucose (5.5 mM) containing medium in accordance with an embodiment of the present invention. PANC-1 cells were pre-incubated in 2 mM glucose, after which they were plated in 5.5 mM fructose or glucose for times between 12-72 h, after which proliferative rates were measured using an MTS assay. Proliferative rates are expressed as the percentage difference between cells grown in 5.5 mM fructose versus 5.5 mM glucose. p<0.01 for times >48 h.
FIG. 14 depicts proliferation rates of pancreatic cells in different fructose or glucose concentrations in accordance with an embodiment of the present invention. PANC-1 cells were plated in a range of fructose or glucose concentrations (5-25 mM) for 72 h, after which proliferative rates were measured using an MTS assay. *, p<0.05 for concentrations between 5-25 mM fructose versus glucose.
FIG. 17 depicts cell proliferation regardless of co-existent glucose concentration in accordance with an embodiment of the present invention. PANC-1 cells were pre-incubated in 2 mM glucose prior to treatment with a range of concentrations (0-15 mM) mixed with a range of fructose concentrations (0-15 mM) for 72 h. PANC-1 cell proliferative rates were then measured using the MTS assay (absorbance in arbitrary units).
Standard media for maintenance cancer cell line culture, including pancreatic cancer cells such as PANC-1 cells contain either low- (5-7 mM), or high- (12-25 mM) glucose concentrations. […] Proliferative rates were then measured in replicate (minimum of 6) aliquot wells of the pancreatic cancer cells, and the change (expressed as percent increase) in proliferative rates compared between cells grown in glucose, or fructose containing medium.
This first result intrigued the inventors, but given there is little documentation regarding physiological fructose concentrations, the inventors first considered that the “apparent” pro-proliferative effects of fructose were simply a consequence of the highly stylized in vitro experimental conditions, and that if the pancreatic cancer cells were cultured in higher glucose concentrations, this would result in similar proliferative rates to those the inventors observed following culture in 5.5 mM fructose. […] MTS assay was employed to measure pancreatic cancer cell proliferative rates, which utilizes mitochondrial oxidation to quantify cell proliferation. As the inventors were examining carbohydrate-mediated effects, the inventors considered the change observed in proliferative rates, as measured by this assay, simply reflected changes in mitochondrial oxidation. […]

[2] = system: GLUT-5 mRNA; test: Quantitative real-time RT-PCR of GLUT-5 mRNA in MCF-7 cells; type: cell-based
Description: FIG. 10 depicts GLUT-5 expression levels in accordance with an embodiment of the present invention. MCF-7 breast cancer cells were incubated in 2 mM glucose (Glu), 5.5 mM glucose (Glu) or 5.5 mM fructose (Fru) for 4 or 24 hours, after which GLUT-5 expression was quantified using real-time RT-PCR, normalized to GAPDH levels, and expressed as fold-increase compared to GLUT-5 levels detected in MCF-7 cells cultured in 2 mM glucose for a similar time period.
Cellular fructose uptake is facilitated by a member of solute carrier family 2, called glucose transporter type 5 (GLUT-5). Following incubation of MCF-7 breast cancer cells in 2 mM, 5.5 mM glucose or 5.5 mM fructose for […], total RNA was harvested, and analyzed by quantitative real-time RT-PCR analysis using GLUT-5 specific primers to quantify GLUT-5 mRNA expression. GLUT-5 expression was normalized to GAPGH mRNA expression, and expressed as fold-change in comparison to control breast cancer cells incubated in 2 mM glucose for 4, and 24 hours.

[3] = system: MDA-MB231 cells; test: Breast cancer cell proliferation in fructose versus glucose (MTT assay); type: cell-based; details: 5 mM fructose compared to 5 mM glucose, 8-72 h
Description: Estrogen receptor (ER) positive MCF-7, and ER negative MDA-MB231 cells were plated in 5 mM fructose or glucose for times between 8-72 h, and proliferative rates measured using MTT assay. *, p<0.05; **, p<0.01.
FIG. 5 depicts fructose-mediated increased breast cancer proliferation in accordance with an embodiment of the present invention. ER positive MCF-7, and ER negative MDA-MB231 cells were plated in a range of fructose or glucose concentrations (5-25 mM) for 72 h, after which proliferative rates were measured using an MTT assay. *, p<0.05 for concentrations between 5-25 mM fructose versus glucose.
Standard media for breast cancer cell culture contain either 5-7 mM (low) and 12-25 mM (high) glucose concentrations. Estrogen receptor (ER) positive MCF-7, and ER negative MDA-MB231 cells were cultured overnight in 2 mM glucose standard DMEM medium containing 10% fetal bovine serum prior to incubation for periods between 8, and 72 hours in standard DMEM medium containing 10% fetal bovine serum, and 5 mM glucose or 5 mM fructose.
Proliferative rates were then measured in replicate (minimum of 6) aliquot wells of the breast cancer cells grown in glucose, or fructose containing medium. […] In separate experiments, proliferative rates of the MCF-7, and MDA-MB231 breast cancer cells were compared following culture in a range of fructose, and glucose concentrations (2-25 mM) for 72 hours.

[4] = system: AP-1; test: AP-1 probe binding assay on nuclear extracts of a primary culture of a pancreatic tumor; type: cell-based, human; details: 5.5 mM sugar, 48 h
Description: FIG. 24 depicts luciferase activity of PANC-1 cells and primary culture of surgically resected pancreatic tumor cells in accordance with an embodiment of the present invention. PANC-1 pancreatic cancer cells and a primary culture of a surgically resected pancreatic tumor were incubated in 2 mM glucose, 5.5 mM glucose or 5.5 mM fructose for 48 h, after which nuclear extracts were incubated with a biotinylated AP-1 probe, and detected by an antibody-linked colorimetric method. *, p<0.01
In separate experiments PANC-1 cells, and primary cultures of surgically resected pancreatic tumors were incubated in 2 mM glucose, or 5.5 mM glucose or 5.5 mM fructose for 48 h, after which nuclear extracts were incubated with a biotinylated AP-1 probe in binding buffer. AP-1/AP1 probe complexes were next conjugated to a streptavidin-coated assay plate and detected using an AP-1 specific antibody, followed by binding of a horseradish-peroxidase conjugated secondary antibody, and detection by a colorimetric reagent.

O=C(CO)[C@@H](O)[C@H](O)[C@H](O)CO [fructose]
proliferative rates ([1]; 5 mM fructose vs 5-fold higher glucose (25 mM), 72 h): higher proliferative rates | higher proliferative rate, fructose vs glucose ([1]; 5.5 mM fructose vs 5.5 mM glucose, 72 h (maximal)): 23% | fructose concentration giving increase in cell proliferation regardless of co-existent glucose ([1]; 72 h, glucose 0-15 mM admixed with fructose 0-15 mM): ≥ 6 mM | fructose concentration at which increased proliferation was first demonstrable ([1]; 72 h, range 2-25 mM): around 5 mM | increase in GLUT-5 expression ([2]; 5.5 mM fructose compared to 5.5 mM glucose, 24 hour incubation): two-fold increase | change in GLUT-5 mRNA expression ([2]; 5.5 mM glucose or 5 mM fructose, 4 hours, vs 2 mM glucose): no significant change | proliferative rates [3]: higher proliferative rates | increase in AP-1 activation compared to 2 mM glucose [4]: 2.1 fold
